Tested on: LG0703-F948-PDC complex spheroid viability
Assay: Anticancer human tumor LG0703-F948-PDC patient-derived lung adenocarcinoma cell line growth inhibition [RAS]
Settings: for IC50: curve of first compound; for viability, T/C: stronger effect = lower value
From the text: RAS pathway inhibitors in Combinations in Complex Spheroids
A high-throughput screen of multi-cell type tumor spheroids was designed to identify active combinations of RAS pathway inhibitors and targeted small molecules. Complex spheroids include a stromal component modeled by human endothelial cells (HUVEC) and fibroblasts modeled by human mesenchymal stem cells (MSCs). The concentration ranges selected for each drug and investigational agent were based upon clinically achievable concentrations if the clinical Cmax of the agent was known.
Compounds. The drugs and investigational agents: abemaciclib (NSC768073), cobimetinib (NSC768068), divarasib (GDC6063, NSC841802), docetaxel (NSC628503), GDC-1971 (RLY-1971, NSC841576), gemcitabine (NSC613327), inavolisib (NSC800729), ipatasertib (NSC767898), KB-0742 (NSC834161), MRTX-1133 (NSC836407), osimertinib (NSC779217), RMC-4630 (NSC839698), RMC-6236 (NSC851965), RMC-6291 (NSC852671), Ro-3306 (NSC812927), sapanisertib (NSC764658), SN-38 (NSC673596), staurosporine (NSC755774), SY5609 (NSC837396), and tovorafenib (DAY101, NSC766906), were obtained from the National Cancer Institute (NCI) Developmental Therapeutics Program Chemical Repository. The FDA-approved anticancer drug set is available from the NCI Developmental Therapeutics Program. […] The stock solutions were prepared in dimethyl sulfoxide (DMSO, Sigma-Aldrich, St. Louis, MO, cat. D2650) at 800-fold the tested concentration and stored at -70 degrees C prior to their use. All drugs and investigational agents were tested over a range starting from a high concentration at or near the clinical Cmax and decreasing in half-log increments. If the clinical Cmax for an agent had not been determined, the highest concentration tested was 10 microM.
Cell Culture. All cells were maintained in an incubator at 37 degrees C and 5% CO2 with 95% humidity. The PDC lines were cultured according to standard operating procedures established by the NCI PDMR. All PDCs were thawed and cultured in Matrigel-coated flasks prepared with a working solution of 1X Ham's F-12 nutrient mix, without supplementation (Invitrogen, Waltham, MA, cat. 11765054), 100 U/mL penicillin-streptomycin (Invitrogen, cat. 15140122), and 2.5% Matrigel (Corning Inc., Corning, NY, cat. 354248) for the first three passages. The 362531-283-R-J2-PDC and 782815-120-R-J1-PDC lines were cultured in 6C/Colon 1B media, which includes advanced DMEM/F-12 (Thermo Fisher Scientific, cat. 12634028), 10 mM HEPES (Thermo Fisher Scientific, cat. 15630080), 1X GlutaMAX supplement (Thermo Fisher Scientific, cat. 35050061), 0.1 mg/mL primocin (InvivoGen, San Diego, CA, cat. ant-pm-2), 10% defined fetal bovine serum, heat inactivated (HyClone Laboratories Inc., Logan, UT, cat. SH30070.03HI), 50% L-WRN conditioned media (ATCC, cat. CRL-3276), 1.25 mM N-Acetyl-L-cysteine (Sigma-Aldrich, cat. A9165), 10 mM nicotinamide (Sigma-Aldrich, cat. N0636), 1X B-27 supplement (Thermo Fisher Scientific, cat. 17504044), 1X N-2 supplement (Thermo Fisher Scientific, cat. 17502048), 50 ng/mL human EGF (Thermo Fisher Scientific, cat. PHG0311), and 10 microM Y-27632 dihydrochloride (Tocris Bioscience, cat. 1254). The K12877-001-R-J1-PDC line was cultured in 6I media, which includes all 6C/Colon 1B media plus 10 ng/mL human FGF-10 (PeproTech, cat. 100-26), 1 ng/mL human FGF-2 (PeproTech, cat. 100-18B), 1 µM prostaglandin E2 (Tocris Bioscience, cat. 2296), […] hydrocortisone (Sigma-Aldrich, cat. H4001), and […] bovine insulin (Sigma-Aldrich, cat. I6634). The K86415-001-R-J1-PDC line was cultured in 6D media, which includes all 6C/Colon 1B media components minus the L-WRN conditioned media. The 485176-168-R4-J1-PDC was cultured in PANC media, which includes all 6C/Colon 1B media plus 100 ng/mL human FGF-10 (PeproTech, cat. 100-26), 500 nM SB-431542 (Selleckchem, cat. S1067), and 10 nM gastrin (Tocris Bioscience, cat. 3006). […]
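Further: spheroids exposed to agents for 7 days.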
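Wherever viability, T/C is given: 100% = DMSO vehicle wells.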

NC1c2ccccc2OC12CCN(c1cnc3c(N4CCCc5ncccc54)n[nH]c3n1)CC2 (centres undefined) + CCn1c(-c2cccnc2C(C)OC)c2c3cc(ccc31)N1CCOC(CC(NC(=O)C(C(C)C)N(C)C(=O)C3(F)CCN(C(=O)C#CC(C)(C)N(C)C)CC3)C(=O)N3CCCC(N3)C(=O)OCC(C)(C)C2)C1
IC50 (second compound 0.000949 µM): 0.0523 µM | IC50 (second compound 0.003 µM): 0.0462 µM | IC50 (second compound 0.00949 µM): 0.0479 µM | IC50 (second compound 0.03 µM): 0.0387 µM | IC50 (second compound 0.0949 µM): < 0.0316 µM | IC50 (second compound 0.3 µM): < 0.0316 µM | viability, T/C (second compound 0.000949 µM, first compound 0.0316 µM): 55.4% | viability, T/C (second compound 0.000949 µM, first compound 0.1 µM): 43.5% | viability, T/C (second compound 0.000949 µM, first compound 0.316 µM): 22.8% | viability, T/C (second compound 0.000949 µM, first compound 1 µM): 12.4% | viability, T/C (second compound 0.000949 µM, first compound 3.16 µM): 4.73% | viability, T/C (second compound 0.000949 µM, first compound 10 µM): 2.85% | viability, T/C (second compound 0.003 µM, first compound 0.0316 µM): 57.1% | viability, T/C (second compound 0.003 µM, first compound 0.1 µM): 35.3% | viability, T/C (second compound 0.003 µM, first compound 0.316 µM): 21.8% | viability, T/C (second compound 0.003 µM, first compound 1 µM): 10.3% | viability, T/C (second compound 0.003 µM, first compound 3.16 µM): 6.54% | viability, T/C (second compound 0.003 µM, first compound 10 µM): 2.52% | viability, T/C (second compound 0.00949 µM, first compound 0.0316 µM): 59.1% | viability, T/C (second compound 0.00949 µM, first compound 0.1 µM): 33.1% | viability, T/C (second compound 0.00949 µM, first compound 0.316 µM): 20.6% | viability, T/C (second compound 0.00949 µM, first compound 1 µM): 8.74% | viability, T/C (second compound 0.00949 µM, first compound 3.16 µM): 5.35% | viability, T/C (second compound 0.00949 µM, first compound 10 µM): 2.44% | viability, T/C (second compound 0.03 µM, first compound 0.0316 µM): 53.6% | viability, T/C (second compound 0.03 µM, first compound 0.1 µM): 33.8% | viability, T/C (second compound 0.03 µM, first compound 0.316 µM): 18.5% | viability, T/C (second compound 0.03 µM, first compound 1 µM): 10.7% | viability, T/C (second compound 0.03 µM, first compound 3.16 µM): 4.93% | viability, T/C (second compound 0.03 µM, first compound 10 µM): 1.68% | viability, T/C (second compound 0.0949 µM, first compound 0.0316 µM): 42% | viability, T/C (second compound 0.0949 µM, first compound 0.1 µM): 27.2% | viability, T/C (second compound 0.0949 µM, first compound 0.316 µM): 12% | viability, T/C (second compound 0.0949 µM, first compound 1 µM): 5.4% | viability, T/C (second compound 0.0949 µM, first compound 3.16 µM): 2.95% | viability, T/C (second compound 0.0949 µM, first compound 10 µM): 1.32% | viability, T/C (second compound 0.3 µM, first compound 0.0316 µM): 25.2% | viability, T/C (second compound 0.3 µM, first compound 0.1 µM): 10.4% | viability, T/C (second compound 0.3 µM, first compound 0.316 µM): 7.14% | viability, T/C (second compound 0.3 µM, first compound 1 µM): 2.48% | viability, T/C (second compound 0.3 µM, first compound 3.16 µM): 2.04% | viability, T/C (second compound 0.3 µM, first compound 10 µM): 1.58%

CC1(O)CCCC1n1c(=O)c(C(F)F)cc2cnc(NC3CCN(S(C)(=O)=O)CC3)nc21 (centres undefined) + C#Cc1c(F)ccc2cc(O)cc(-c3ncc4c(N5CC6CCC(C5)N6)nc(OCC56CCCN5CC(F)C6)nc4c3F)c12
IC50 (second compound 0.0316 µM): 6.15 µM | IC50 (second compound 0.1 µM): 7.25 µM | IC50 (second compound 0.316 µM): 5.04 µM | IC50 (second compound 1 µM): 5.73 µM | IC50 (second compound 3.16 µM): 4.26 µM | IC50 (second compound 10 µM): 3.94 µM | viability, T/C (second compound 0.0316 µM, first compound 0.0316 µM): 109% | viability, T/C (second compound 0.0316 µM, first compound 0.1 µM): 92.2% | viability, T/C (second compound 0.0316 µM, first compound 0.316 µM): 97.8% | viability, T/C (second compound 0.0316 µM, first compound 1 µM): 87% | viability, T/C (second compound 0.0316 µM, first compound 3.16 µM): 77.1% | viability, T/C (second compound 0.0316 µM, first compound 10 µM): 31.6% | viability, T/C (second compound 0.1 µM, first compound 0.0316 µM): 131% | viability, T/C (second compound 0.1 µM, first compound 0.1 µM): 109% | viability, T/C (second compound 0.1 µM, first compound 0.316 µM): 82.4% | viability, T/C (second compound 0.1 µM, first compound 1 µM): 76.3% | viability, T/C (second compound 0.1 µM, first compound 3.16 µM): 87.7% | viability, T/C (second compound 0.1 µM, first compound 10 µM): 29.5% | viability, T/C (second compound 0.316 µM, first compound 0.0316 µM): 83.9% | viability, T/C (second compound 0.316 µM, first compound 0.1 µM): 72.4% | viability, T/C (second compound 0.316 µM, first compound 0.316 µM): 74.5% | viability, T/C (second compound 0.316 µM, first compound 1 µM): 65.9% | viability, T/C (second compound 0.316 µM, first compound 3.16 µM): 69.4% | viability, T/C (second compound 0.316 µM, first compound 10 µM): 23.9% | viability, T/C (second compound 1 µM, first compound 0.0316 µM): 78.3% | viability, T/C (second compound 1 µM, first compound 0.1 µM): 82.7% | viability, T/C (second compound 1 µM, first compound 0.316 µM): 88.3% | viability, T/C (second compound 1 µM, first compound 1 µM): 67.1% | viability, T/C (second compound 1 µM, first compound 3.16 µM): 86.7% | viability, T/C (second compound 1 µM, first compound 10 µM): 21.3% | viability, T/C (second compound 3.16 µM, first compound 0.0316 µM): 71.5% | viability, T/C (second compound 3.16 µM, first compound 0.1 µM): 62% | viability, T/C (second compound 3.16 µM, first compound 0.316 µM): 69.1% | viability, T/C (second compound 3.16 µM, first compound 1 µM): 61.6% | viability, T/C (second compound 3.16 µM, first compound 3.16 µM): 63% | viability, T/C (second compound 3.16 µM, first compound 10 µM): 13.6% | viability, T/C (second compound 10 µM, first compound 0.0316 µM): 50% | viability, T/C (second compound 10 µM, first compound 0.1 µM): 71.3% | viability, T/C (second compound 10 µM, first compound 0.316 µM): 55.2% | viability, T/C (second compound 10 µM, first compound 1 µM): 62.9% | viability, T/C (second compound 10 µM, first compound 3.16 µM): 65.1% | viability, T/C (second compound 10 µM, first compound 10 µM): 4.24%
